Positions count from the first letter of the chain named.
Tests used:
GPR139 L87A2x64 = biological target: T1, GPR139 L87A2x64 (Homo sapiens, UniProt Q6DWJ6, L87A); test: Fluo-4 Ca2+-assay, GPR139 mutant L87A; type: cell-based
T1 construct: mGluR5 signal peptide (N); expressed in transfected cells; host or cells: HEK293
T1 sequence (Q6DWJ6 2-353 L87A limits assumed): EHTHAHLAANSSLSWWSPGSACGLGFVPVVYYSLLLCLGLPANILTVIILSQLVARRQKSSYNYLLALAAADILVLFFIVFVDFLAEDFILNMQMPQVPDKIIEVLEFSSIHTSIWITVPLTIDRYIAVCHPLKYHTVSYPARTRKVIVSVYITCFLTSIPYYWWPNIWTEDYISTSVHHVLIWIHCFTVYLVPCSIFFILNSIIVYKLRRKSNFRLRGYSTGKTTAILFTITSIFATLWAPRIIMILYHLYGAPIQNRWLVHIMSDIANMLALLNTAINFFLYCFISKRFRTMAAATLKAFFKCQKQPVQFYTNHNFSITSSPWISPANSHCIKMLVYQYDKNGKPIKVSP
Source text: (§1) To study the influence of specific amino acids in the predicted binding pocket on receptor function, the desired mutations were introduced into an N-terminally c-myc-tagged wild type human GPR139 (NM_001002911.3) in the pEGFP-N1 vector (BD Biosciences)[32], [33]. As previously described, these plasmids carry the signal peptide of mGluR5 to promote cell surface expression followed by a c-myc epitope to enable detection of total and surface expression by ELISA, followed by an engineered MluI and NotI site for easy insertion of the receptor of interest. Furthermore, the start-codon in the GPR139 sequence was deleted to ensure c-myc-tagging. Mutagenesis was designed in Serial Cloner 2.6 (© Franck Perez [SerialBasics]) and carried out by GenScript (USA). All mutated residues are illustrated in Supplementary Fig. 1b. An untagged GPR139(WT) in pEGFP-N1 was also generated to ensure that the c-myc-tag had no influence on GPR139(WT) function.
(§2) All GPR139 mutants were transfected into HEK293 cells. The HEK293 cells were grown in Dulbecco’s modified Eagle’s medium (DMEM) (Gibco, 41965) supplemented with 10% dialyzed fetal bovine serum (Gibco, 26400, United States origin), 100 units/mL penicillin and 100 μg/mL streptomycin (Gibco, 15140). HEK293 cells were reverse transfected using Lipofectamine2000 (Invitrogen). […]
(§3) The Ca^2+ measurements were preformed using the Fluo-4 NW Calcium Assay Kit (Invitrogen, Molecular Probes, F36206) as previously described. […] Intracellular calcium changes were recorded as indicated on either a NOVOstar (BMG Labtech) at 37 °C with an excitation filter of 485 nm and an emission filters 520 nm or a FlexStation 3 Benchtop Multi-Mode Microplate Reader (Molecular Devices) at 37 °C with an excitation wavelength of 485 nm and emission of 525 nm.
(§4) All pharmacological data have been analyzed by using Prism 6.0 (GraphPad Software Inc., San Diego). […] Changes in potency (pEC50) and span of myc-GPR139(WT) in comparison to untagged GPR139(WT) was statistically analyzed with a paired t-test and significance was accepted at p < 0.05. […]

GPR139 E108Q3x32 = biological target: T2, GPR139 E108Q3x32 (Homo sapiens, UniProt Q6DWJ6, E108Q); test: Fluo-4 Ca2+-assay, GPR139 mutant E108Q; type: cell-based
T2 construct: mGluR5 signal peptide (N); expressed in transfected cells; host or cells: HEK293
T2 sequence (Q6DWJ6 2-353 E108Q limits assumed): T1 sequence (Q6DWJ6 2-353 L87A limits assumed) with A86L, E107Q
Source text: as §1, §2, §3, §4

- EC50 (GPR139 L87A2x64; L87A mutant): 479 nM
- change of potency (GPR139 L87A2x64; L87A mutant versus WT (reduced surface expression)): equipotent
- Emax (GPR139 L87A2x64; L87A, normalized to buffer (0%) and 8 µM 1a (100%)): 75 ± 17%
- EC50 (GPR139 E108Q3x32; E108Q mutant): 1510 nM
- potency reduction (GPR139 E108Q3x32; E108Q mutant versus WT): 6 fold
- Emax (GPR139 E108Q3x32; E108Q, normalized to buffer (0%) and 8 µM 1a (100%)): 217 ± 21%
SMILES: COc1cc(OC)cc(C(=O)NNC(=O)Nc2cccc3ccccc23)c1 [Compound 1a]
